Results on 15 molecules are retold here after patent publication US20250136581A1, “SUBSTITUTED TRIAZOLE DERIVATIVE, PREPARATION METHOD THEREFOR, PHARMACEUTICAL COMPOSITION THEREOF, AND USE THEREOF” (SHANGHAI SIMR BIOTECHNOLOGY CO., LTD., priority 2021, published 2025).

The structures appear in SMILES notation.

For experiment [1], the target named is α5-GABAA receptor (α5, β3, γ2 subunits) (Homo sapiens (Human), UniProt P18507+P31644). Description: Whole cell patch clamp, inverse agonist efficacy in HEK293 cells expressing α5-GABAA receptor. It is filed as cell-based. The following applies: GABA 0.05 μM, −60 mV; for inhibition at 0.1 µM: HEK293, drug 100 nM, read-out: Compound inverse agonist efficacy %. A digest of the protocol: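 Compounds screened at 100 nM against current induced by 0.05 μM GABA in monoclonal HEK293 cells stably expressing α5β3γ2 GABAA receptors. Recording by whole-cell voltage clamp (−60 mV, pH 7.4 bath, CsCl pipette); efficacy calculated from leak-corrected currents before and after drug.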

For experiment [2], the target named is human α3β3γ2 receptors (Homo sapiens (Human), UniProt P18507+P34903). Description: 3H-flunitrazepam competition binding, human α3β3γ2 GABAA receptor. The settings on record: HEK293 cell membranes, 1 nM 3H-flunitrazepam; read-out: Ki α3. The procedure:
(§1) The affinity of the compound to each subtype of GABAA receptor was determined by competing for the binding of ^3H-flunitrazepam to HEK293 cells stably expressing human α1β3γ2, α2β3γ2, α3β3γ2, and α5β3γ2 receptors.
(§2) The cells were suspended in 50 mM Tris-HCl buffer (pH=7.4), homogenized 10 times on ice with a homogenizer for 20 seconds, and centrifuged at 1000 g for 10 minutes at 4° C. The supernatant was collected, and the above steps were repeated. The supernatant was centrifuged at 4° C. (33800 g; Thermo, rotor: A27-8×50) for 60 minutes, and the precipitate was resuspended in Tris buffer (50 mM Tris-HCl, 10 mM MgCl2, 0.5 mM EDTA, 10% glycerol). Protein was measured (BCA method, Pierce), and 1 mL aliquots were prepared and stored at −80° C.
(§3) The radioligand competition binding assay was performed in a 200 μL system (96-well plate) containing 100 μL of cell membrane. The concentration of ^3H-flunitrazepam was 1 nM and the concentration of the test compound was in the range of […]. Flumazenil was used as a control. 1 μL of 2 mM flumazenil (final concentration […]) was added to the low signal control well (Low control, LC), and 1 μL of DMSO was added to the high signal control well (High control, HC). The final concentration of target membrane protein was […]. All test compound sample storage solutions were 10 mM. The working concentration of the samples was to dilute all the samples to 0.2 mM with DMSO, followed by 4-fold serial gradient dilutions for a total of 8 concentration gradients. The 96-well plate was sealed with a sealing film, and then incubated on a shaker at room temperature for 1 hour. At the same time, the GF/C filter plate was soaked in soaking buffer (0.3% PEI, stored at 4° C.) for at least 0.5 hours. After the binding incubation was completed, the cells were collected onto a GF/C filter plate using a cell harvester. The plate was washed four times with washing buffer (50 mM Tris-HCl, pH 7.4, stored at 4° C.). After drying in a 50° C. oven for 1 hour, the bottom of the dried GF/C filter plate was sealed. The residual radioactivity on the filter membrane was detected using liquid scintillation counting. 50 μL of scintillation fluid was added to each well, and the plate was sealed. The readings were taken using a Microbeta2. The inhibitory activity of the test sample on the binding of ^3H-flunitrazepam to GABAA receptor membrane proteins was calculated, and the IC50 of each test sample was calculated by dose-effect curve fitting (GraphPad Prism 5 software), and the Ki of the sample was calculated from the IC50, thus evaluating the binding ability of the sample to the various subtypes of GABAA receptors.

Experiment [3] addresses human α2β3γ2 receptors (Homo sapiens (Human), UniProt P18507+P47869). The experiment is described as follows: 3H-flunitrazepam competition binding, human α2β3γ2 GABAA receptor. The following applies: HEK293 cell membranes, 1 nM 3H-flunitrazepam; read-out: Ki α2. The procedure: as §1, §2, §3
Experiment [4] deals with human α1β3γ2 receptors (Homo sapiens (Human), UniProt P14867+P18507). Description: 3H-flunitrazepam competition binding, human α1β3γ2 GABAA receptor. The following applies: HEK293 cell membranes, 1 nM 3H-flunitrazepam; read-out: Ki α1. The procedure: as §1, §2, §3
In experiment [5] the target is human α5β3γ2 receptors (α5-GABAA receptor) (Homo sapiens (Human), UniProt P18507+P31644). Description: 3H-flunitrazepam competition binding, human α5β3γ2 GABAA receptor. The following applies: HEK293 cell membranes, 1 nM 3H-flunitrazepam; read-out: α5-GABAAR Ki. A digest of the protocol: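 Radioligand displacement of 1 nM 3H-flunitrazepam from membranes of HEK293 lines stably expressing the human subtypes, 1 h at room temperature, compound in 8-point 4-fold series. Bound label on GF/C filters counted by scintillation; Ki derived from fitted IC50, with flumazenil as low control.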

Regarding `Cc1nnn(-c2ccc(C(F)F)cc2)c1COc1ccc(N2CCN3CC(C4CC4)NC(=O)[C@@H]3C2)nn1` (single isomer, unassigned) [Example 204], the “Compound inverse agonist efficacy %” value in experiment [1] (drug 100 nM) was −68.71%. Further, the Ki in experiment [2] was 50.3 nM; in experiment [3] it was 70.1 nM; in experiment [4], 158 nM; in experiment [5], 2.31 nM.

In the case of `Cc1nnn(-c2ccc(C(F)F)cc2)c1COc1ccc(N2CCNC(=O)C2)nn1` [Example 2, 4-(6-((1-(4-(Difluoromethyl)phenyl)-4-methyl-1H-1,2,3-triazol-5-yl)methoxy)pyridazin-3-yl)piperazin-2-one], in experiment [1], the inhibition at 0.1 µM stood at 58.8%. For the same molecule, the inhibition constant (Ki) in experiment [2] amounted to 28.6 nM; in experiment [3], 19.8 nM; in experiment [4], 145 nM; in experiment [5], 2.15 nM.

With `Cc1nnn(-c2ccc(C(F)F)cc2)c1COc1ccc(N2CC(=O)NC(=O)C2)nn1` [Example 5, 4-(6-((1-(4-(Difluoromethyl)phenyl)-4-methyl-1H-1,2,3-triazol-5-yl)methoxy)pyridazin-3-yl)piperazine-2,6-dione], the inhibition at 0.1 µM in experiment [1] was 54.5%. In addition, the Ki in experiment [2] stood at 16.8 nM; in experiment [3], 12.9 nM; in experiment [4], 58.1 nM; in experiment [5] it was 0.96 nM.

In the case of `Cc1nnn(-c2ccc(C(F)F)cc2)c1COc1ccc(N2CC(=O)NC(C)(C)C2)nn1` [Example 7, 4-(6-((1-(4-(Difluoromethyl)phenyl)-4-methyl-1H-1,2,3-triazol-5-yl)methoxy)pyridazin-3-yl)-6,6-dimethylpiperazin-2-one], the Ki in experiment [2] worked out at 17 nM; in experiment [3], 26.2 nM; in experiment [4], 122 nM; in experiment [5], 1 nM.

In the case of `Cc1nnn(-c2ccc(C(F)F)cc2)c1COc1ccc(N2CC(=O)NC3(CC3)C2)nn1` [Example 8, 7-(6-((1-(4-(Difluoromethyl)phenyl)-4-methyl-1H-1,2,3-triazol-5-yl)methoxy)pyridazin-3-yl)-4,7-diazaspiro[2.5]octan-5-one], the inhibition at 0.1 µM in experiment [1] worked out at 40.4%. The Ki in experiment [2] turned out to be 17 nM; in experiment [3], 22.2 nM; in experiment [4], 80.5 nM; in experiment [5] it was 0.89 nM.

Turning to `Cc1nnn(-c2ccc(C(F)F)cc2)c1COc1ccc(N2CCNC2=O)nn1` [Example 19, 1-(6-((1-(4-(Difluoromethyl)phenyl)-4-methyl-1H-1,2,3-triazol-5-yl)methoxy)pyridazin-3-yl)imidazolidin-2-one], the inhibition at 0.1 µM in experiment [1] was found to be 53.7%. Moreover, the Ki in experiment [2] worked out at 7.34 nM; in experiment [3], 10.4 nM; in experiment [4] it was 15.8 nM; in experiment [5], 0.52 nM.

Turning to `Cc1nnn(-c2ccc(C(F)F)cc2)c1COc1ccc(N2CCN(C)C(=O)C2)cn1` [Example 22, 4-(6-((1-(4-(Difluoromethyl)phenyl)-4-methyl-1H-1,2,3-triazol-5-yl)methoxy)pyridin-3-yl)-1-methylpiperazin-2-one], the inhibition at 0.1 µM in experiment [1] was found to be 48.4%. Besides, the Ki in experiment [3] is 38.6 nM; in experiment [4], 87 nM; in experiment [5], 2.69 nM.

Take `Cc1nnn(-c2ccc(C(F)F)cc2)c1COc1ccc(N2CCOC2=O)nn1` [Example 23, 3-(6-((1-(4-(Difluoromethyl)phenyl)-4-methyl-1H-1,2,3-triazol-5-yl)methoxy)pyridazin-3-yl)oxazolidin-2-one]: the inhibition at 0.1 µM in experiment [1] stood at 44.1%. Further, the figures for the Ki in experiment [3], in experiment [4] and in experiment [5] were 13.6 nM, 21.9 nM and 3.73 nM, respectively.

As to `Cc1nnn(-c2ccc(C(F)F)cc2)c1COc1ccc(N2CCN[C@H](C(=O)O)C2)nn1` [Example 27, (S)-4-(6-((1-(4-(Difluoromethyl)phenyl)-4-methyl-1H-1,2,3-triazol-5-yl)methoxy)pyridazin-3-yl)piperazine-2-carboxylic acid], in experiment [1], the inhibition at 0.1 µM worked out at 59.1%. The Ki was found to be 135 nM in experiment [2], 107 nM in experiment [3], 333 nM in experiment [4] and 3.65 nM in experiment [5].

Regarding `CCNC(=O)C1CN(c2ccc(OCc3c(C)nnn3-c3ccc(C(F)F)cc3)nn2)C1` [Example 43, 1-(6-[(1-(4-(Difluoromethyl)phenyl)-4-methyl-1H-1,2,3-triazol-5-yl)methoxy]pyridazin-3-yl)-N-ethylazetidine-3-carboxamide], the inhibition at 0.1 µM in experiment [1] came out at 52.2%. Besides, the Ki was found to be 18.5 nM in experiment [2], 72.7 nM in experiment [3], 149 nM in experiment [4] and 4.49 nM in experiment [5].

On to `Cc1nnn(-c2ccc(C(F)F)cc2)c1COc1ccc(N2CCN3CCNC(=O)[C@@H]3C2)nn1` [Example 54, (S)-8-(6-((1-(4-(Difluoromethyl)phenyl)-4-methyl-1H-1,2,3-triazol-5-yl)methoxy)pyridazin-3-yl)hexahydro-2H-pyrazino[1,2-a]pyrazin-1(6H)-one], for which the inhibition at 0.1 µM in experiment [1] worked out at 50.9%. Also, the Ki worked out at 49.8 nM in experiment [2], 71.6 nM in experiment [3], 294 nM in experiment [4] and 2.55 nM in experiment [5].

On to `Cc1nnn(-c2ccc(C(F)F)cc2)c1COc1ccc(N2CCN3CCNC(=O)[C@H]3C2)nn1` [Example 55, (R)-8-(6-((1-(4-(Difluoromethyl)phenyl)-4-methyl-1H-1,2,3-triazol-5-yl)methoxy)pyridazin-3-yl)hexahydro-2H-pyrazino[1,2-a]pyrazin-1(6H)-one], for which, in experiment [1], the inhibition at 0.1 µM was found to be 51.6%. In addition, the Ki in experiment [2] stood at 27.5 nM; in experiment [3] it was 56.4 nM; in experiment [4], 178 nM; in experiment [5], 0.39 nM.

Turning to `Cc1nnn(-c2ccc(C(F)F)cc2)c1COc1ccc(N2CCN(CCN3CCCC3)C(=O)C2)nn1` [Example 61, 4-(6-((1-(4-(Difluoromethyl)phenyl)-4-methyl-1H-1,2,3-triazol-5-yl)methoxy)pyridazin-3-yl)-1-(2-(pyrrolidin-1-yl)ethyl)piperazin-2-one], the inhibition at 0.1 µM in experiment [1] was found to be 49%. In addition, the inhibitory constant (Ki) in experiment [2] amounted to 13.1 nM; in experiment [3], 26 nM; in experiment [4], 126 nM; in experiment [5], 2.12 nM.

Turning to `Cc1nnn(-c2ccc(C(F)F)cc2)c1COc1ccc(N2CC(=O)N3CCNCC3C2)nn1` (stereo not drawn) [Example 68, 2-(6-((1-(4-(Difluoromethyl)phenyl)-4-methyl-1H-1,2,3-triazol-5-yl)methoxy)pyridazin-3-yl)hexahydro-1H-pyrazino[1,2-a]pyrazin-4-(6H)-one], the inhibition at 0.1 µM in experiment [1] worked out at 50.5%. Besides, the Ki in experiment [2] came out at 14 nM; in experiment [3], 17.1 nM; in experiment [4], 56.9 nM; in experiment [5], 0.84 nM.

For `Cc1nnn(-c2ccc(F)cc2)c1COc1ccc(N2CCNC(=O)C2)nn1` [Example 76, 4-(6-((1-(4-Fluorophenyl)-4-methyl-1H-1,2,3-triazol-5-yl)methoxy)pyridazin-3-yl)piperazin-2-one], the inhibition at 0.1 µM in experiment [1] worked out at 45.3%. In addition, the Ki in experiment [2] was determined as 173 nM; in experiment [3], 301 nM; in experiment [4], 832 nM; in experiment [5], 2.87 nM.
